Laboratory results from US20250361511A1, “NANOPARTICLE COMPOSITIONS CONTAINING SIRP-alpha siRNA FOR TREATMENT OF CANCER” (The Texas A&M University System, priority 2024, published 2025).

Key:
OVCAR3 monospheroids = experiment: Response to carboplatin chemotherapy, MTS viability, monospheroids; type: cell-based
Method: (§1) Spheroid formation on 384-well hanging drop arrays. OvCa monospheroids or OvCa/macrophage heterospheroids were formed on a 384-well hanging drop array following well-established protocols. OvCa monospheroids were initiated with 100 cells in a 20 μL drop of growth medium. To create OvCa/macrophage heterospheroids, the hanging drop platform was first leveraged to differentiate THP-1 monocytes to M0 macrophages by phorbol ester exposure20. Following a 3-day differentiation, macrophages were harvested and mixed with OvCa cells (50:50) to create heterospheroids. Monospheroid or heterospheroid formation was visually confirmed using phase contrast microscopy at day 4.
(§2) Response to chemotherapy. Carboplatin (MedChemExpress, Monmouth Junction, NJ) was dissolved by sonication in sterile PBS at a stock concentration of 5 mg/mL. OVCAR3 monospheroids or OVCAR3/macrophage heterospheroids formed over 4 days were treated with 0-500 μM carboplatin and incubated for 2 days/48 hours. An MTS assay was then used to determine the percent cell viability in carboplatin-treated spheroids compared to untreated controls. IC50 values were calculated with the GraphPad Prism normalized log (inhibitor) variable slope nonlinear fit function.
(§3) siSIRPα LNP immune checkpoint treatment. Mono-or hetero-spheroids were treated with 25 nM siSIRPα LNP on day 2 in hanging drop culture. LNP ability to reduce both macrophage SIRPα expression and OvCa metastatic behavior were evaluated over 4 more days.

[1] = test system: OVCAR3/macrophage heterospheroids; experiment: Response to carboplatin chemotherapy, MTS viability, heterospheroids; type: cell-based
Method: as §1, §2, §3

## N.N.O=C([O-])C1(C(=O)[O-])CCC1.[Pt+2] [carboplatin]
OVCAR3 monospheroids; OVCAR3 monospheroids, carboplatin 0-500 μM, FIG. 1B
  IC50: 114 µM
OVCAR3 monospheroids; monospheroids after siSIRPα LNP, FIG. 15A
  IC50: 272 µM
OVCAR3 monospheroids; monospheroids, control, 0-500 μM for 48 hours, MTS, FIG. 10C/15A
  IC50: 218 µM
[1]; OVCAR3/THP1 OvCa/MP hetero-spheroids, no LNP, FIG. 1B/6B
  IC50: 536 µM
[1]; OvCa/MP hetero-spheroids treated with siSIRPα-LNP, FIG. 6B
  IC50: 213 µM
[1]; heterospheroids with 25 nM siSIRPα LNP treatment, FIG. 14B
  IC50: 321 ± 54.6 µM
[1]; heterospheroids with negative control (scramble) siRNA LNP, FIG. 15C
  IC50: 405 µM
[1]; heterospheroids, no treatment, 0-500 μM for 48 hours, MTS, FIG. 10C/14B/15C
  IC50: 368 µM
